Measurements as given in patent publication US5116971A, “Substituted-1,4-diazepines” (Boehringer Ingelheim KG, priority 1986, dated 1992).
Where two headings read alike, the source gives them in different places.

System: human platelets (aggregation induced by PAF)
Assay: inhibition of PAF-induced blood platelet aggregation in vitro
Format: cell-based
Protocol: To determine the PAF-antagonistic action of substances, use was made of the aggregation of human platelets induced in vitro by PAF. To obtain platelet-rich plasma (PRP), blood is taken from an uncompressed vein using a plastic syringe containing 3.8% strength sodium citrate solution. The ratio between sodium citrate solution and blood is 1:9. After careful mixing, the citrated blood is centrifuged at 150×g (1200 rpm) for 20 minutes. The platelet aggregation is measured by the method worked out by Born and Cross (G. V. R. Born and M. J. Cross, J. Physiol. 168, 178 (1963)), with PAF being added to the continuously stirred PRP to initiate the aggregation. The test substance is added in a volume of 10 ul in each case 2-3 minutes before initiation of the aggregation. The solvents used are either distilled water, ethanol and/or dimethyl sulphoxide. Blanks contain corresponding volumes of these solvents. After the initial absorption has been recorded (2-3 minutes), aggregation is induced with PAF (5×10^-8 M). To assess the effects of substances, use is made of the maximum of the first aggregation wave. The maximum absorption rate (=maximum aggregation×100%) induced by PAF is, in each case, simultaneously checked in a parallel mixture (=blank in one channel of the two-channel aggregometer) for each test mixture (second channel) and used as the 100% value. The aggregation obtained under the influence of the test substance is […].

[1] = Homo sapiens, read-out: IC50 (concentration for 50% inhibition of aggregation)
[2] = read-out: IC50 (concentration for 50% inhibition of aggregation), Table A, human PRP, PAF 5×10^-8 M

| Structure (SMILES) | IC50 [1] [nM] | IC50 [2] [nM] |
| --- | --- | --- |
| Cc1nnc2n1-c1ccc(Cl)cc1C(c1ccccc1Cl)=NC2 [Triazolam, triazolam, reference compound] | 9000 | – |
| COC(=O)CCNC(=O)c1ccc2c(c1)C(c1ccccc1Cl)=NCc1ncc(C)n1-2 [compound 2] | 900 | – |
| Cc1nnc2n1-c1ccc(C(=O)NCC(=O)N3CCOCC3)cc1C(c1ccccc1Cl)=NC2 [compound 4] | 700 | – |
| COC(=O)C[C@H](NC(=O)c1ccc2c(c1)C(c1ccccc1Cl)=NCc1nnc(C)n1-2)C(=O)OC [compound 5] | 1200 | – |
| Cc1nnc2n1-c1ccc(C(=O)NC3CCSC3=O)cc1C(c1ccccc1Cl)=NC2 (stereo not drawn) [compound 11] | 3500 | – |
| Cc1nnc2n1-c1ccc(CC(=O)NCC(=O)N3CCOCC3)cc1C(c1ccccc1Cl)=NC2 [compound 12] | 1100 | – |
| COC(=O)[C@@H](CCSC)NC(=O)c1ccc2c(c1)C(c1ccccc1Cl)=NCc1nnc(C)n1-2 [compound 15] | 900 | – |
| CCN(CC)C(=O)[C@H](CC(C)C)NC(=O)c1ccc2c(c1)C(c1ccccc1Cl)=NCc1nnc(C)n1-2 [compound 16] | 400 | – |
| Cc1nnc2n1-c1ccc(C(=O)N3CCC[C@H]3C(=O)N3CCOCC3)cc1C(c1ccccc1Cl)=NC2 [compound 18] | 8100 | – |
| Cc1nnc2n1-c1ccc(C(=O)NCC(=O)N3CCOCC3)cc1C(c1ccccc1Cl)NC2 (stereo not drawn) [compound 21] | – | 1900 |
| Cc1nnc2n1-c1ccc(C(=O)N[C@H](C(=O)NC(C)C)C(C)C)cc1C(c1ccccc1Cl)=NC2 [compound 27] | 700 | – |
| Cc1nnc2n1-c1sc(C(=O)N(C)CC(=O)N3CCOCC3)cc1C(c1ccccc1Cl)=NC2 [compound 28] | – | 1900 |
| COc1nnc2n1-c1ccc(C(=O)NCC(=O)N3CCOCC3)cc1C(c1ccccc1Cl)=NC2 [compound 33] | 2500 | – |
| C[C@H](NC(=O)c1ccc2c(c1)C(c1ccccc1Cl)=NCc1nnc(C3CC3)n1-2)C(=O)N1CCCC1 [compound 35] | 900 | – |
| Cc1nnc2n1-c1sc(CCC(=O)NCC(=O)N3CCOCC3)cc1C(c1ccccc1Cl)=NC2 [compound 48] | – | 600 |
